From patent publication US8906864B2, “Binding domains of proteins of the repulsive guidance molecule (RGM) protein family and functional fragments thereof, and their use” (AbbVie Deutschland GmbH & Co. KG, priority 2005, dated 2014)
“Also recorded” adds a separate entry of the source. Where no end group is shown, it is not given here.

Legend:
Type in all cases: cell-based
[1] = test system: human Ntera nerve cells; test: NTera nerve fiber growth assay (assay method 2); conditions: for inhibition of nerve fiber growth of human NTera cells: peptide concentration 30 μg/ml (higher concentration); for activity of RGM A peptides in NTera growth assay: FIG. 6A and 6B; for activity in NTera nerve fiber growth assay: peptide concentration 10 μg/ml (FIG. 6B)
Experimental: The human pluripotent carcinoma cell line Ntera (DSMZ ACC527) is an established cell culture model. In this case, axons grow out of cell aggregates and form a corona of axons around the respective aggregate.
For this purpose, 2.5×10^6 Ntera cells were seeded in a 175 cm^2 bottle and differentiated in 10 μM retinoic acid (Sigma) (medium: D-MEM (Gibco/Invitrogen 31966-021), 10% fetal calf serum, 100 u/ml penicillin, 100 μg/ml streptomycin (both Gibco/Invitrogen)) for 3 weeks. Differentiated cells were then divided 1:6 in new bottles and cultured without retinoic acid for a further 2 days. Neuronal cells adhering to the resulting cell lawn were detached by capping and aggregated by slow shaking in Neurobasal medium (Neurobasal Medium (Gibco/Invitrogen 21103-049), 2 mM L-glutamine (Gibco/Invitrogen 25030-024), 100 u/ml penicillin, 100 μg/ml streptomycin (both Gibco/Invitrogen) in a shaken flask overnight (in an incubator).
The next day, Ntera aggregates were seeded in poly-D-lysine and laminin (Sigma) (10 μg/ml) 96-well plates (Biocoat Poly-D-Lysine Cellware 96-Well Black/Clear Plate (Becton Dickinson #35 6640). The inhibitory effect of RGM peptides and fragments was analyzed by adding various concentrations of the substances to be tested.

[2] = test system: Neogenin-expressing HEK293 cells; test: Fragment analysis with neogenin-expressing HEK293 cells (semiquantitative dot-blot of producing clones); conditions: stably transfected HEK293 clones
Excerpt: It was previously known that the active, growth-inhibiting activity of the RGM A protein from chickens is located in the region between amino acid position 150 and 350.
Fragments of the human RGM A protein which cover this range were therefore prepared. HEK293 cells which carry the RGM receptor endogenously on their surface were then transfected with these fragments in order to prepare clonal cell cultures which produce the individual protein fragments and release them into the culture medium. All the fragments were produced as fusion proteins with attached alkaline phosphatase enzyme. The presence of the active domain in these cells should make itself noticeable by: less cellular proliferation, increased cell death and/or altered cell-substrate adhesion.
Increased cell death and less proliferation have, of course, a direct effect on the produced amount of the active fragment. The amount of the produced fragments was assessed with the aid of a semiquantitative dot-blot assay.
The RGM A fragments prepared as in preparation example 1 were introduced into HEK293 cells. […]
In addition, the ratio of strongly to non-producing clones was determined.

[3] = test system: rat cortical neurons; test: Neuronal outgrowth test with rat cortical neurons (assay method 1)
Experimental: The effect of RGM peptides in vitro was investigated by carrying out neuronal outgrowth tests. For this purpose, rat cortical neurons were prepared using the following media:
Cortical neurons were obtained by sacrificing pregnant rats by cervical dislocation, opening the abdominal cavity thereof, removing the uterus with the embryos (embryonic day 18 (E18)) and washing in PBS. Microdissection scissors were used to cut open the uterus longitudinally, and the embryos were removed and exposed. The embryos were sacrificed by throat-cutting, the brain was removed and the forebrain cortex was dissected. […] The cells were counted in a Neubauer counting chamber, and the number of cells was adjusted to about 400 000 cells/0.2 ml in MM and preaggregated. […] 24-48 h later, the axonal outgrowths were initially assessed by examination under a light microscope, and the cultures were then fixed by adding 100 μl of 4% paraformaldehyde solution and stored at 4° C. for at least 12 hours. […] The fluorescence-labeled secondary antibody (Jackson ImmunoResearch, Cy3 conjugated Affinity Pure Donkey Anti Mouse #715-165-151) was diluted 1:500 in 1% bovine serum albumin solution in PBS, which additionally comprised 0.5 μg/ml bisbenzimide (H33258) to visualize the cell nuclei, and 50 μl of this dilution were incubated per well at room temperature for 1-2 h or at 4° C. overnight. […]

Substance	inhibition of nerve fiber growth of human NTera cells [1]	activity of RGM A peptides in NTera growth assay ([1]; overall result)	activity in NTera nerve fiber growth assay [1]	further results
Fragment 5: human RGM A fragment amino acids 369-422, expressed in HEK293 as AP fusion protein (PVEDLYYQACVFDLLTTGDVNFTLAAYYALEDVKMLHSNKDKLHLYERTRDLPG; also: alkaline phosphatase fusion; UniProt Q96B86 369-422, looked up, fragment)	–	–	–	activity (inhibitory for axon growth) of RGM A fragments in NTera outgrowth assay ([1]; stated concentrations (FIG. 5B), overall result): inactive; Proportion of strongly producing cell clones [2]: 16%; Ratio "S producer" versus "0 producer" ([2]; low value = active fragment): 0.63
Peptide 4: synthetic RGM A peptide AA 378-400 of SEQ ID NO: 2 (CVFDLLTTGDVNFTLAAYYALED; listed as Homo sapiens)	not	–	–	activity on nerve fiber growth of cortical neurons (axon growth index) ([3]; concentrations 0 to 30 μg/ml (FIG. 3C)): no activity; influence on nerve fiber growth of rat neuronal cells ([3]; peptide concentration 10 μg/ml, fluorescence micrographs (FIG. 3A)): inactive
Peptide 5-Ak: RGM A peptide 242-259, AFVDGSKNGGDKHGANSL (SEQ ID NO: 30)	–	Inactive or only weakly active	inactive	–
Peptide 6-Ak: RGM A peptide 300-316, VVNAVEDWDSQGLYLC (SEQ ID NO: 28)	distinct trend in the direction of inhibition of nerve fiber growth; also recorded: tendency to inhibit growth	Inactive or only weakly active	inactive	–
Peptide 7-Ak: RGM A peptide 217-234, TIIFKNFQECVDQKVYQA (SEQ ID NO: 29)	distinct trend in the direction of inhibition of nerve fiber growth; also recorded: tendency to inhibit growth	Inactive or only weakly active	inactive	–
Peptide Down-1: RGM A peptide 260-275, KITEKVSGQHVEIQAK (SEQ ID NO: 26)	inhibited nerve fiber growth highly significantly	large reduction in nerve fiber growth	–	–
Peptide Up-1: RGM A peptide 276-291, YIGTTIVVRQVGRYLT (SEQ ID NO: 27)	inhibited nerve fiber growth highly significantly	large reduction in nerve fiber growth	–	–
